Assay results: a compilation of properties of binary mixtures (doi:10.1007/s10953-015-0327-z)

Test: xn = mol fraction of the nth substance listed
Details: 298.15 K, 101 kPa

With `CCCn1cc[n+](C)c1.O=S(=O)([N-]S(=O)(=O)C(F)(F)F)C(F)(F)F` + O as the molecule, how does the speed of sound (x2 = 0.0016) read?
Its speed of sound is 1230.2 m/s.

What about the speed of sound (x2 = 0.0556) of the same molecule?
The speed of sound was 1231.7 m/s.

And the speed of sound (x2 = 0.2358)?
Its speed of sound is 1236 m/s.

What does the source list for `CC[n+]1ccn(C)c1.N#C[S-]` + O?
speed of sound (x2 = 0.153): 1848.1 m/s; speed of sound (x2 = 0.204): 1847.8 m/s

Which speed of sound (x2 = 0.0092) does the source give for `CCCC[N+]1(C)CCCC1.O=S(=O)([N-]S(=O)(=O)C(F)(F)F)C(F)(F)F` + O here?
Its speed of sound is 1267.8 m/s.

What about the speed of sound (x2 = 0.0139) of the same molecule?
The speed of sound was 1267.7 m/s.

What about the speed of sound (x2 = 0.0228) of the same molecule?
The speed of sound was 1267.8 m/s.

What about the speed of sound (x2 = 0.0467) of the same molecule?
The speed of sound was 1268.3 m/s.

And the speed of sound (x2 = 0.2014)?
The speed of sound was 1273.9 m/s.

With `CCCC[n+]1ccn(C)c1.O=S(=O)([N-]S(=O)(=O)C(F)(F)F)C(F)(F)F` + O as the molecule, how does the speed of sound (x2 = 0.012) read?
The speed of sound was 1226.2 m/s.

And the speed of sound (x2 = 0.1166)?
The speed of sound was 1228.4 m/s.

What about the speed of sound (x2 = 0.1843) of the same molecule?
The speed of sound was 1230.3 m/s.
